Laboratory results: patent US7045636B2, “MCH antagonists for the treatment of obesity” (Schering Corporation, priority 2001, dated 2006)

Target: T1, MCH receptor (Homo sapiens, UniProt Q99705)
T1 construct: expressed in transfected cells; host or cells: CHO cells
Assay: MCH Receptor Binding Assay
Conditions: Table 1; membranes from CHO cells expressing the MCH receptor, [125I]-MCH, SPA; read-out: MCH Ki (nm)
Experimental: MCH Receptor Binding Assay:
Membranes from CHO cells expressing the MCH receptor were prepared by lysing cells with 5 mM HEPES for 15 min at 4C. Cell lysates were centrifuged ([…], 15 min) and the pellet was re-suspended in 5 mM HEPES. For each 96-well plate (Microlite, Dynex Technologies), 1 mg of cell membranes were incubated with 10 mg of wheat germ agglutinin SPA beads (Amersham) for 5 min at 4 C in a volume of 10 ml of binding buffer (25 mM HEPES, 10 mM MGCl2, 10 mM NaCl, 5 mM MnCl2, 0.1% BSA). The membrane/bead mixture was centrifuged (1500×g, 3.5 min), the supernatant was aspirated, and the pellet was re-suspended in 10 ml binding buffer. The centrifugation, aspiration and re-suspension were then repeated. The membrane/bead mixture (100 μl) was then added to 96-well plates containing 50 μl of 500 pM [^125I]-MCH (NEN) and […] of the appropriate concentration of compound (4× the desired final concentration). Nonspecific binding was determined by including 1 μM MCH in the binding reaction. The binding reaction was incubated at room temperature for 2 h. Plates were then analyzed in a TOPCOUNT microplate scintillation counter (Packard). Data was analyzed and Ki values were determined using GraphPad Prim.

T1 sequence (Q99705 whole entry): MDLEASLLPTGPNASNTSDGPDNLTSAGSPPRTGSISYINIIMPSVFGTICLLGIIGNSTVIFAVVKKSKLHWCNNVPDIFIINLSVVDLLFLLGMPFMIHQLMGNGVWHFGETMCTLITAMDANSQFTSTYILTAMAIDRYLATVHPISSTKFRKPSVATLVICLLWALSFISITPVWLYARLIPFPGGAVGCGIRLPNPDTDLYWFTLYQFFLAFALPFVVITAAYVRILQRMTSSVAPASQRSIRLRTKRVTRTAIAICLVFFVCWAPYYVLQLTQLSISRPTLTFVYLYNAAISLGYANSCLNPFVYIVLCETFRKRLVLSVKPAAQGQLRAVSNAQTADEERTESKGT

Row | Structure (SMILES) | Ki
1 | N#Cc1cccc(-c2ccc(CCN(CC(=O)Nc3ccc(F)c(Cl)c3)C(=O)CN3CC[C@@H](O)C3)cc2)c1 [Example 3] | 3.7 nM
2 | N#Cc1cccc(-c2ccc(CCN(CC(=O)Nc3ccc(F)c(Cl)c3)C(=O)CN3CCCC3)cc2)c1 [Example 4] | 5.3 nM
3 | N#Cc1cccc(-c2ccc(CCN(CC(=O)Nc3cc(F)cc(C(F)(F)F)c3)C(=O)CN3CC[C@@H](O)C3)cc2)c1 [Example 5] | 6.7 nM
4 | N#Cc1cccc(-c2ccc(CCN(CC(=O)Nc3cc(Cl)cc(Cl)c3)C(=O)CCN3CC[C@H](O)C3)cc2)c1 [Example 6] | 7.2 nM
5 | N#Cc1cccc(-c2ccc(CCN(CC(=O)Nc3cc(Cl)cc(Cl)c3)C(=O)CN3CCCCC3)cc2)c1 [Example 7] | 9.3 nM
6 | N#Cc1cccc(-c2ccc(CCN(CC(=O)Nc3cc(Cl)cc(Cl)c3)C(=O)CCN3CCCC3)cc2)c1 [Example 9] | 10 nM
7 | N#Cc1cccc(-c2ccc(CCN(CC(=O)Nc3ccc(Cl)c(C(F)(F)F)c3)C(=O)CN3CC[C@@H](O)C3)cc2)c1 [Example 10] | 11 nM
8 | N#Cc1cccc(-c2ccc(CCN(CC(=O)Nc3cc(F)cc(C(F)(F)F)c3)C(=O)CN3CCCC3)cc2)c1 [Example 11] | 11.7 nM
9 | N#Cc1cccc(-c2ccc(CCN(CC(=O)Nc3cc(Cl)cc(Cl)c3)C(=O)CCN3CC[C@@H](O)C3)cc2)c1 [Example 12] | 12 nM
10 | N#Cc1cccc(-c2ccc(CN(CC(=O)Nc3cc(Cl)cc(Cl)c3)C(=O)NCCN3CCCC3)cc2)c1 [Example 13] | 13 nM
11 | N#Cc1cccc(-c2ccc(CCN(CC(=O)Nc3cc(Cl)cc(Cl)c3)C(=O)CN3CCCC3)cc2)c1 [Example 15] | 19 nM
12 | CCCNCCC(=O)N(CCc1ccc(-c2cccc(C#N)c2)cc1)CC(=O)Nc1cc(Cl)cc(Cl)c1 [Example 16] | 24 nM
13 | N#Cc1cccc(-c2ccc(CCN(CC(=O)Nc3ccc(Cl)c(C(F)(F)F)c3)C(=O)CN3CCCC3)cc2)c1 [Example 17] | 25 nM
14 | N#Cc1cccc(-c2ccc(CN(CC(=O)Nc3cc(Cl)cc(Cl)c3)C(=O)CN3CC[C@H](O)C3)cc2)c1 [Example 18] | 27 nM
15 | N#Cc1cccc(-c2ccc(CCN(CC(=O)Nc3ccc(F)c(C(F)(F)F)c3)C(=O)CN3CCCC3)cc2)c1 [Example 19] | 28 nM
16 | N#Cc1cccc(-c2ccc(CCN(CC(=O)Nc3cc(Cl)cc(Cl)c3)C(=O)CCN3CCC3)cc2)c1 [Example 20] | 32 nM
17 | N#Cc1cccc(-c2ccc(CN(CC(=O)Nc3cc(Cl)cc(Cl)c3)C(=O)CN3CCCC3)cc2)c1 [Example 21] | 35 nM
18 | CN(C)CC(=O)N(CC(=O)Nc1cc(Cl)cc(Cl)c1)Cc1ccc(-c2cccc(C#N)c2)cc1 [Example 22] | 36 nM

More lines, now with the values ahead:

Row | Ki | Structure (SMILES)
19 | 40 nM | N#Cc1cccc(-c2ccc(CN(CC(=O)Nc3cc(Cl)cc(Cl)c3)C(=O)C3CN(C4CCCC4)C3)cc2)c1 [Example 24]
20 | 52 nM | CN(C)CC(=O)N(CC(=O)Nc1cc(Cl)cc(Cl)c1)c1ccc(-c2cccc(C#N)c2)cc1 [Example 25]
21 | 56 nM | CC(C(=O)Nc1cc(Cl)cc(Cl)c1)N(Cc1ccc(-c2cccc(C#N)c2)cc1)C(=O)CCN1CC[C@H](O)C1 (stereo partly drawn) [Example 26]
22 | 61 nM | N#Cc1cccc(-c2ccc(CN(CC(=O)Nc3cc(Cl)cc(Cl)c3)C(=O)CN3CC[C@@H](O)C3)cc2)c1 [Example 27]
23 | 63 nM | CN1CCN(CC(=O)N(CCc2ccc(-c3cccc(C#N)c3)cc2)CC(=O)Nc2cc(Cl)cc(Cl)c2)CC1 [Example 28]
24 | 72 nM | N#Cc1cccc(-c2ccc(CN(CC(=O)Nc3ccc(F)c(C(F)(F)F)c3)C(=O)CN3CCCC3)cc2)c1 [Example 29]
25 | 73 nM | CC(C(=O)Nc1cc(Cl)cc(Cl)c1)N(Cc1ccc(-c2cccc(C#N)c2)cc1)C(=O)CCN1CCCC1 (stereo not drawn) [Example 30]
26 | 82 nM | CC(=O)N[C@@H]1CCN(CC(=O)N(CCc2ccc(-c3cccc(C#N)c3)cc2)CC(=O)Nc2cc(Cl)cc(Cl)c2)C1 [Example 31]
27 | 90 nM | CN(C)CC(=O)N(CCc1ccc(-c2cccc(C#N)c2)cc1)CC(=O)Nc1cc(Cl)cc(Cl)c1 [Example 32]
28 | 8 nM | CC(C(=O)Nc1cc(Cl)cc(Cl)c1)N(CCc1ccc(-c2cccc(C#N)c2)cc1)C(=O)CN1CC[C@H](O)C1 (stereo partly drawn) [Example 36]
29 | 9 nM | CC(C(=O)Nc1cc(Cl)cc(Cl)c1)N(CCc1ccc(-c2cccc(C#N)c2)cc1)C(=O)CN1CCCCC1 (stereo not drawn) [Example 37]

Same assay, conditions: Table 2; membranes from CHO cells expressing the MCH receptor, [125I]-MCH, SPA; read-out: Ki (MCH)

Row | Ki | Structure (SMILES)
30 | 12 nM | CC(c1ccc(-c2cccc(C#N)c2)cc1)N(CC(=O)Nc1cc(Cl)cc(Cl)c1)C(=O)CCN1CC[C@@H](O)C1 (stereo partly drawn) [Example 41]
31 | 16 nM | CC(c1ccc(-c2cccc(C#N)c2)cc1)N(CC(=O)Nc1cc(Cl)cc(Cl)c1)C(=O)CN1CC[C@H](O)C1 (stereo partly drawn) [Example 42]
32 | 18 nM | C[C@@H](c1ccc(-c2cccc(C#N)c2)cc1)N(CC(=O)Nc1cc(Cl)cc(Cl)c1)C(=O)CCN1CC[C@@H](O)C1 [Example 43]
33 | 18 nM | C[C@@H](c1ccc(-c2cccc(C#N)c2)cc1)N(CC(=O)Nc1cc(Cl)cc(Cl)c1)C(=O)CCN1CCCCC1 [Example 44]
34 | 22 nM | CCCNCCC(=O)N(CC(=O)Nc1cc(Cl)cc(Cl)c1)[C@@H](C)c1ccc(-c2cccc(C#N)c2)cc1 [Example 45]
35 | 22 nM | C[C@@H](c1ccc(-c2cccc(C#N)c2)cc1)N(CC(=O)Nc1cc(Cl)cc(Cl)c1)C(=O)CCNCC1CC1 [Example 46]
36 | 23 nM | C[C@H](c1ccc(-c2cccc(C#N)c2)cc1)N(CC(=O)Nc1cc(Cl)cc(Cl)c1)C(=O)CCN1CC[C@@H](O)C1 [Example 47]
37 | 28 nM | C[C@@H](c1ccc(-c2cccc(C#N)c2)cc1)N(CC(=O)Nc1cc(Cl)cc(Cl)c1)C(=O)CCNC1CCC1 [Example 48]
38 | 31 nM | C[C@H](c1ccc(-c2cccc(C#N)c2)cc1)N(CC(=O)Nc1cc(Cl)cc(Cl)c1)C(=O)CN1CC[C@@H](O)C1 [Example 49]
39 | 34 nM | CC(C)CNCCC(=O)N(CC(=O)Nc1cc(Cl)cc(Cl)c1)[C@@H](C)c1ccc(-c2cccc(C#N)c2)cc1 [Example 50]
40 | 45 nM | C[C@@H](c1ccc(-c2cccc(C#N)c2)cc1)N(CC(=O)Nc1cc(Cl)cc(Cl)c1)C(=O)CCN(C)C [Example 51]
41 | 67 nM | C[C@@H](c1ccc(-c2cccc(C#N)c2)cc1)N(CC(=O)Nc1cc(Cl)cc(Cl)c1)C(=O)CCNC1CCCC1 [Example 52]
42 | 78 nM | CNCCC(=O)N(CC(=O)Nc1cc(Cl)cc(Cl)c1)[C@@H](C)c1ccc(-c2cccc(C#N)c2)cc1 [Example 53]

Same assay, conditions: printed unit nM; read-out: MCH Ki

Row | Ki | Structure (SMILES)
43 | 62 nM | N#Cc1cccc(-c2ccc(CC(=O)N(CCCN3CCCC3)CC(=O)Nc3cc(Cl)cc(Cl)c3)cc2)c1 [Example 61]

Same assay, conditions: text of the example; printed unit nm; read-out: MCH Ki

Row | Ki | Structure (SMILES)
44 | 21 nM | N#Cc1cccc(-c2ccc(CN(CC(=O)Nc3cc(Cl)cc(Cl)c3)C(=O)CCN3CCCC3)cc2)c1 [Example 1]
45 | 21 nM | CC(c1ccc(-c2cccc(C#N)c2)cc1)N(CC(=O)Nc1cc(Cl)cc(Cl)c1)C(=O)CN1CCCC1 (stereo not drawn) [Example 40]
